# Test results reported in the NIST ThermoML archive (doi:10.1016/j.fluid.2015.09.030).
# Numbers after ± are expanded uncertainties.
# Conditions: Liquid, Ebulliometric method (Recirculating still)
smiles,measurement,setting,value
"Cc1cc(C)cc(C)c1 [1,3,5-trimethylbenzene]",vapor or sublimation pressure,437.83 K,101.33 ± 0.46 kPa
"Cc1ccc(C)s1 [2,5-dimethylthiophene]",vapor or sublimation pressure,409.96 K,101.33 ± 0.46 kPa
CCc1cccs1 [2-ethylthiophene],vapor or sublimation pressure,407.14 K,101.33 ± 0.46 kPa
c1ccccc1 [benzene],vapor or sublimation pressure,353.15 K,101.33 ± 0.46 kPa
CCCCCCCCCC [decane],vapor or sublimation pressure,447.46 K,101.33 ± 0.46 kPa
CCO [ethanol],vapor or sublimation pressure,351.45 K,101.33 ± 0.46 kPa
